Experimental data: paper PMC10175918 (Communications Biology, 2023)
Where two headings read alike, the source gives them in different places.

Experiments:
Experiment in all cases: TGFα-shedding assay-based GPCR screening with chimeric Gα subunit proteins
Assay type in all cases: cell-based
[1] = target: T1, 348 GPCRs (Homo sapiens, UniProt Q9BXC1); settings: 10µM, Favipiravir 100μM
T1 construct: expressed in transfected cells; host or cells: HEK293A

[2] = target: T2, 348 GPCRs (Homo sapiens, UniProt Q9NYW2); settings: 10µM, Favipiravir 100μM
T2 construct: expressed in transfected cells; host or cells: HEK293A
T2 sequence (Q9NYW2 1-309): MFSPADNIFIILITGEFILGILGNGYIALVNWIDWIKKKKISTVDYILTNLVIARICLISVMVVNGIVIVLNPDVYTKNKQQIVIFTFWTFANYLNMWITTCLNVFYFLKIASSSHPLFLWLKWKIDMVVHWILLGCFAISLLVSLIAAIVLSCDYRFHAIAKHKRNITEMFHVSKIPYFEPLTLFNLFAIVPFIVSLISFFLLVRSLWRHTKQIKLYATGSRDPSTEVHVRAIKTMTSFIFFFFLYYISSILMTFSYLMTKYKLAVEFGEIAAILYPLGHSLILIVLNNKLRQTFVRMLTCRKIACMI

[3] = target: T3, 348 GPCRs (Homo sapiens, UniProt Q86Y34); settings: 10µM, Favipiravir 100μM
T3 construct: expressed in transfected cells; host or cells: HEK293A

[4] = target: T4, 348 GPCRs (Homo sapiens, UniProt P48146); settings: 10µM, Favipiravir 100μM
T4 construct: expressed in transfected cells; host or cells: HEK293A

[5] = target: T5, 348 GPCRs (Homo sapiens, UniProt O95838); settings: 10µM, Favipiravir 100μM
T5 construct: expressed in transfected cells; host or cells: HEK293A
T5 sequence (O95838 1-553): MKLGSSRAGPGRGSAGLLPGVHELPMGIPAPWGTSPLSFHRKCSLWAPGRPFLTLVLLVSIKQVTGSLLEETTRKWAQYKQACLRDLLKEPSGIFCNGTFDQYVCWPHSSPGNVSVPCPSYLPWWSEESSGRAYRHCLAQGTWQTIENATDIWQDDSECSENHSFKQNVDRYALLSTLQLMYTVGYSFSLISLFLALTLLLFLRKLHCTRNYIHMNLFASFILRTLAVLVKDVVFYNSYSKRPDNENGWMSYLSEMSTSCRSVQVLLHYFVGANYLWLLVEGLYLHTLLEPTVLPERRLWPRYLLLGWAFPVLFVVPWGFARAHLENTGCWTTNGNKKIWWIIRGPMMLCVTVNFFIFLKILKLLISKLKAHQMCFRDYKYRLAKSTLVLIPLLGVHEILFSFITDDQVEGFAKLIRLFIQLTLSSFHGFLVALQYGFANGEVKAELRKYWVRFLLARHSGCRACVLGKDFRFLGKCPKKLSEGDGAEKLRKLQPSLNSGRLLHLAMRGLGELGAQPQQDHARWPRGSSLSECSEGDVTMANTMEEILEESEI

[6] = target: T6, 348 GPCRs (Homo sapiens, UniProt P22888); settings: 10µM, Favipiravir 100μM
T6 construct: expressed in transfected cells; host or cells: HEK293A

[7] = target: T7, 348 GPCRs (Homo sapiens, UniProt O00590); settings: 10µM, Favipiravir 100μM
T7 construct: expressed in transfected cells; host or cells: HEK293A
T7 sequence (O00590 1-384): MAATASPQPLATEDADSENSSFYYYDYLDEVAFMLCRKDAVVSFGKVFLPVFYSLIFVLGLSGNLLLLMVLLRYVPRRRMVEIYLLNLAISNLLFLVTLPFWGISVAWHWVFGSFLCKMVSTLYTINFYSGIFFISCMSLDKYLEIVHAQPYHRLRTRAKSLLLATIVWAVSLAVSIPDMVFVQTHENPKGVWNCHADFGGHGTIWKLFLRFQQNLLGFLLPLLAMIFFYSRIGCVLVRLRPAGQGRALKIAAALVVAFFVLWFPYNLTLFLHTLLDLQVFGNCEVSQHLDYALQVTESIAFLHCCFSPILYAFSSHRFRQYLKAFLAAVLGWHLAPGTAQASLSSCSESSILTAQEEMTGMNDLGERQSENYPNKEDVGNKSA

[8] = target: T8, 348 GPCRs (Homo sapiens, UniProt P47900); settings: GPCR P2Y1 (purinergic receptor P2Y, G-protein coupled, 1)
T8 construct: expressed in transfected cells; host or cells: HEK293A

[9] = target: T9, 348 GPCRs (Homo sapiens, UniProt O43603); settings: 10µM, Favipiravir 100μM
T9 construct: expressed in transfected cells; host or cells: HEK293A
T9 sequence (O43603 1-387): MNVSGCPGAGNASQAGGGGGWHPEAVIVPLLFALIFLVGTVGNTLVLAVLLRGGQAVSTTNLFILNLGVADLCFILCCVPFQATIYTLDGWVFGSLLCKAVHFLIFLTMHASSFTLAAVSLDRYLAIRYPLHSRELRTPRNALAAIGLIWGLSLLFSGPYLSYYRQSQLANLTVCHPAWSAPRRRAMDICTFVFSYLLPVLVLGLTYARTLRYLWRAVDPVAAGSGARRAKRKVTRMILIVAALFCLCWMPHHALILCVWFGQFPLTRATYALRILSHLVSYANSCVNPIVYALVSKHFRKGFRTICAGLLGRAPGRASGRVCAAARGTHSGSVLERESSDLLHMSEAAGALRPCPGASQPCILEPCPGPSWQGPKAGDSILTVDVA

[10] = target: T10, 348 GPCRs (Homo sapiens, UniProt Q9UBS5); settings: 10µM, Favipiravir 100μM
T10 construct: expressed in transfected cells; host or cells: HEK293A

[11] = GPR174 (G-Protein Coupled Receptor 174), read-out: % GPCR activation compared to TPA
[12] = TAS2R8 (taste receptor, type 2, member 8), read-out: % GPCR activation compared to TPA
[13] = GPR97 (Adhesion G Protein-Coupled Receptor G3 (ADGRG3)), read-out: % GPCR activation compared to TPA
[14] = NPBWR2 (neuropeptides B and W receptor 2), read-out: % GPCR activation compared to TPA
[15] = GLP2R (glucagon like peptide 2 receptor), read-out: % GPCR activation compared to TPA
[16] = LHCGR (luteinizing hormone/choriogonadotropin receptor), read-out: % GPCR activation compared to TPA
[17] = CCBP2 (chemokine binding protein 2), read-out: % GPCR activation compared to TPA
[18] = GAL2 (galanin receptor 2), read-out: % GPCR activation compared to TPA
[19] = GABBR1 (gamma-aminobutyric acid (GABA) B receptor, 1), read-out: % GPCR activation compared to TPA
[20] = read-out: % GPCR activation compared to TPA, GPR174 (G-Protein Coupled Receptor 174)
[21] = read-out: % GPCR activation compared to TPA, TAS2R8 (taste receptor, type 2, member 8)
[22] = read-out: % GPCR activation compared to TPA, GPR97 (Adhesion G Protein-Coupled Receptor G3 (ADGRG3))
[23] = read-out: % GPCR activation compared to TPA, NPBWR2 (neuropeptides B and W receptor 2)
[24] = read-out: % GPCR activation compared to TPA, GLP2R (glucagon like peptide 2 receptor)
[25] = read-out: % GPCR activation compared to TPA, LHCGR (luteinizing hormone/choriogonadotropin receptor)
[26] = read-out: % GPCR activation compared to TPA, CCBP2 (chemokine binding protein 2)
[27] = read-out: % GPCR activation compared to TPA, GAL2 (galanin receptor 2)
[28] = read-out: % GPCR activation compared to TPA, GABBR1 (gamma-aminobutyric acid (GABA) B receptor, 1)

T6 sequence (P22888 27-699): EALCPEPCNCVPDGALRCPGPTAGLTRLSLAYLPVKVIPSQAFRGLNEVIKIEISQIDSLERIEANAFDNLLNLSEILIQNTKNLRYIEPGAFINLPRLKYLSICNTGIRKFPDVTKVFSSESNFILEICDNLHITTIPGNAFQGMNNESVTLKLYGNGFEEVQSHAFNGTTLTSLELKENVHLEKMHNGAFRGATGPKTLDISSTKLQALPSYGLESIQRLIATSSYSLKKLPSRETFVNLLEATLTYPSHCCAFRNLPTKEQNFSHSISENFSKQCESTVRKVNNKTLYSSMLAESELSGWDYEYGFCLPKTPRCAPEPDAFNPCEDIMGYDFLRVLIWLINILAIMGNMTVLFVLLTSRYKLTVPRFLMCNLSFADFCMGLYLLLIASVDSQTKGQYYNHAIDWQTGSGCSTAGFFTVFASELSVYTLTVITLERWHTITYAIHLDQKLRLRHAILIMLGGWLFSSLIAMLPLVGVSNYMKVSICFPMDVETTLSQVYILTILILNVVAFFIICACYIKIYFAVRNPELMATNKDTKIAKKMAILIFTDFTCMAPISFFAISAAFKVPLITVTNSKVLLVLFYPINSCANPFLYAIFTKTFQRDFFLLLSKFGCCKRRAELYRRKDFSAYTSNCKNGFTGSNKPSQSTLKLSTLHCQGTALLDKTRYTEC
T1 sequence (Q9BXC1 whole entry): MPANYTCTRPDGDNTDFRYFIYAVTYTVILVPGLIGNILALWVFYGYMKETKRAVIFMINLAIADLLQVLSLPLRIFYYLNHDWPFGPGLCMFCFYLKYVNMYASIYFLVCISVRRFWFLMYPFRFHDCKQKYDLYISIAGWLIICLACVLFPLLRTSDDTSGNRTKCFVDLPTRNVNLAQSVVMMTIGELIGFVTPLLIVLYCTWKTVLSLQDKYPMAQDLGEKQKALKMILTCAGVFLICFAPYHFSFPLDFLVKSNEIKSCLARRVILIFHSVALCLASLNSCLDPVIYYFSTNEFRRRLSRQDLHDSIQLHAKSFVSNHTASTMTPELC
T8 sequence (P47900 whole entry): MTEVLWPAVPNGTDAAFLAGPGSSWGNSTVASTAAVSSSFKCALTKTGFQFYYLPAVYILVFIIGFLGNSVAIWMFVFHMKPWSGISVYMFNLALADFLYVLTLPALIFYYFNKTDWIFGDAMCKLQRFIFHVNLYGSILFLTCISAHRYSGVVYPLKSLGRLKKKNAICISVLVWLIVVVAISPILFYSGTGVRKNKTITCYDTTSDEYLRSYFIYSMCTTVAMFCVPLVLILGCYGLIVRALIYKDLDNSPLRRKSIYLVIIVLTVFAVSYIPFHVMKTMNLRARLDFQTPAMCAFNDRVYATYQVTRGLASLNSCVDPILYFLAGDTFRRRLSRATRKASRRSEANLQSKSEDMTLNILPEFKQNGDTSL
T10 sequence (Q9UBS5 20-961): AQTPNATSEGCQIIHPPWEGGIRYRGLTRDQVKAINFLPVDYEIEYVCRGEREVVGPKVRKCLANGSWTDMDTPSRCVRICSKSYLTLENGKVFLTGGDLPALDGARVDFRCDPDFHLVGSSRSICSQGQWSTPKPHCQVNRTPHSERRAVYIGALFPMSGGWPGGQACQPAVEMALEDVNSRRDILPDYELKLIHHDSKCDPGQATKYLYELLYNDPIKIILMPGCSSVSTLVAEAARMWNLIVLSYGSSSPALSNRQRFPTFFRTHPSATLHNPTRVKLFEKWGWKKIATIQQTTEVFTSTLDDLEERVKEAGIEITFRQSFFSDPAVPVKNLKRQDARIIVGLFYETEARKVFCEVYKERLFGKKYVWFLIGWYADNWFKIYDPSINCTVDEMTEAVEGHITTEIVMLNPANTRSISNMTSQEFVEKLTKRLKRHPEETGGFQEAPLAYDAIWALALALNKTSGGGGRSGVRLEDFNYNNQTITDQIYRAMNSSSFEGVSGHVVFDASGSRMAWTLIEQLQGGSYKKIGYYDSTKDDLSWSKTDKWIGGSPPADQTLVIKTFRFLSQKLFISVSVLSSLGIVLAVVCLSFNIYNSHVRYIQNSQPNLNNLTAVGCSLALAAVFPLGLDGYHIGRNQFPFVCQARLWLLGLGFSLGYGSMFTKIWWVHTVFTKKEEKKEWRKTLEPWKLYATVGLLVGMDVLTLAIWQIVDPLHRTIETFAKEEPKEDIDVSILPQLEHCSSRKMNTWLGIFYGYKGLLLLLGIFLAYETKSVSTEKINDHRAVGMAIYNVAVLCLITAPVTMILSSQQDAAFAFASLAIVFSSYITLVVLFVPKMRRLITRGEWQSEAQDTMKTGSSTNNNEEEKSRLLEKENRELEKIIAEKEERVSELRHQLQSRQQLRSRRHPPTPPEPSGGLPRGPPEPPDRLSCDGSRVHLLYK
T4 sequence (P48146 whole entry): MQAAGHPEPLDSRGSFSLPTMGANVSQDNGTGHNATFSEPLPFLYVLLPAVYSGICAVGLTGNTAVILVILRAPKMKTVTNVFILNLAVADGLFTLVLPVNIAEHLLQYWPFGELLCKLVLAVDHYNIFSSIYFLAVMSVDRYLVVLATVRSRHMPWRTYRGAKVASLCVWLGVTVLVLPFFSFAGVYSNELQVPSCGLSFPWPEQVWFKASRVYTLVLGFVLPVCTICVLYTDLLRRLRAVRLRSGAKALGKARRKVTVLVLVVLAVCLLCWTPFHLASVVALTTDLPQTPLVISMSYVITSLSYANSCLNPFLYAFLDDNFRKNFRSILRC
T3 sequence (Q86Y34 21-549): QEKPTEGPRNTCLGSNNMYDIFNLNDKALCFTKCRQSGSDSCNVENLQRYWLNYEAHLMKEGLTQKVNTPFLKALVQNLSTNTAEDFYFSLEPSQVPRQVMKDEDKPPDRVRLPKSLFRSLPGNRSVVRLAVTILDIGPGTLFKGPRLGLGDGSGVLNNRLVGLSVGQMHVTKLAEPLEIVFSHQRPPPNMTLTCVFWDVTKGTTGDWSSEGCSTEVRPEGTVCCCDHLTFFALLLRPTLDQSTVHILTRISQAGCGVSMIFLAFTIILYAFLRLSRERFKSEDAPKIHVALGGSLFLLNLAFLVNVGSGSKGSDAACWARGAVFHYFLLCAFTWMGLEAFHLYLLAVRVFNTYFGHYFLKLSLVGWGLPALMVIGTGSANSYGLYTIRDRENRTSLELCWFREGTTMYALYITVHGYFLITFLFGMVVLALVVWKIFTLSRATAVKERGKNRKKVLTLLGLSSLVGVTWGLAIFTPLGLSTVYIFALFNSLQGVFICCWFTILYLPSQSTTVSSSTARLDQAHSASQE

## N#C[C@@]1(c2ccc3c(N)ncnn23)O[C@H](CO)[C@@H](O)[C@H]1O [GS441524]
[1]; [11]
  activation at 100 µM: -2.64%
[2]; [12]
  activation at 10 µM: 0.391%
[3]; [13]
  activation at 100 µM: -0.758%
[4]; [14]
  activation at 10 µM: -1.66%
[5]; [15]
  activation at 10 µM: 1.04%
[6]; [16]
  activation at 100 µM: 0.261%
[7]; [17]
  activation at 100 µM: -3.26%
[8]; 10µM
  % GPCR activation compared to TPA: -0.4592%
[9]; [18]
  activation at 100 µM: -0.925%
[10]; [19]
  activation at 100 µM: -3.77%

## CC(C)OC(=O)[C@H](C)N[P@](=O)(OC[C@H]1O[C@@H](n2ccc(=O)[nH]c2=O)[C@](C)(F)[C@@H]1O)Oc1ccccc1 [sofosbuvir]
[1]; [20]
  activation at 100 µM: -1.73%
[2]; [21]
  activation at 10 µM: 0.759%
[3]; [22]
  activation at 100 µM: -1.21%
[4]; [23]
  activation at 10 µM: -2.75%
[5]; [24]
  activation at 10 µM: -0.662%
[6]; [25]
  activation at 100 µM: 1.92%
[7]; [26]
  activation at 100 µM: -0.681%
[8]; 10µM
  % GPCR activation compared to TPA: -4.632%
[9]; [27]
  activation at 100 µM: 3.27%
[10]; [28]
  activation at 100 µM: -1.14%

## CCC(CC)COC(=O)[C@H](C)N[P@](=O)(OC[C@H]1O[C@@](C#N)(c2ccc3c(N)ncnn23)[C@H](O)[C@@H]1O)Oc1ccccc1 [remdesivir]
[1]; [20]
  activation at 100 µM: 1.12%
[2]; [21]
  activation at 10 µM: 0.189%
[3]; [22]
  activation at 100 µM: -1.74%
[4]; [23]
  activation at 10 µM: -4.48%
[5]; [24]
  activation at 10 µM: 1.76%
[6]; [25]
  activation at 100 µM: 0.234%
[7]; [26]
  activation at 100 µM: -7.69%
[8]; 10µM
  % GPCR activation compared to TPA: 11.0377%
[9]; [27]
  activation at 100 µM: 0.971%
[10]; [28]
  activation at 100 µM: -3.66%

## CC(C)C(=O)OC[C@H]1O[C@@H](n2ccc(NO)nc2=O)[C@H](O)[C@@H]1O [molnupiravir]
[1]; [11]
  activation at 100 µM: -2%
[2]; [12]
  activation at 10 µM: -0.417%
[3]; [13]
  activation at 100 µM: -1.08%
[4]; [14]
  activation at 10 µM: -2.92%
[5]; [15]
  activation at 10 µM: 0.598%
[6]; [16]
  activation at 100 µM: -0.797%
[7]; [17]
  activation at 100 µM: -0.55%
[8]; 10µM
  % GPCR activation compared to TPA: -11.8258%
[9]; [18]
  activation at 100 µM: -6.16%
[10]; [19]
  activation at 100 µM: -1.05%

## NC(=O)c1nc(F)cnc1O [favipiravir, 6-fluoro-3-hydroxy-2-pyrazinecarboxamide]
[1]; [11]
  activation at 100 µM: -2.2%
[2]; [12]
  activation at 10 µM: -0.549%
[3]; [13]
  activation at 100 µM: -1.79%
[4]; [14]
  activation at 10 µM: -4.53%
[5]; [15]
  activation at 10 µM: 2.97%
[6]; [16]
  activation at 100 µM: 0.315%
[7]; [17]
  activation at 100 µM: -6.14%
[8]; 100μM
  % GPCR activation compared to TPA: 0.4296%
[9]; [18]
  activation at 100 µM: -0.244%
[10]; [19]
  activation at 100 µM: -4.01%
